Laboratory results from patent US20060211710A1, “Substituted aryl 1,4-pyrazine derivatives” (Pfizer Inc, priority 2005, published 2006).

Target: T1, CRF1 receptor (Rattus norvegicus, UniProt P35353)
T1 construct: from tissue; host or cells: rat frontal cortex membranes
T1 sequence (P35353 24-415): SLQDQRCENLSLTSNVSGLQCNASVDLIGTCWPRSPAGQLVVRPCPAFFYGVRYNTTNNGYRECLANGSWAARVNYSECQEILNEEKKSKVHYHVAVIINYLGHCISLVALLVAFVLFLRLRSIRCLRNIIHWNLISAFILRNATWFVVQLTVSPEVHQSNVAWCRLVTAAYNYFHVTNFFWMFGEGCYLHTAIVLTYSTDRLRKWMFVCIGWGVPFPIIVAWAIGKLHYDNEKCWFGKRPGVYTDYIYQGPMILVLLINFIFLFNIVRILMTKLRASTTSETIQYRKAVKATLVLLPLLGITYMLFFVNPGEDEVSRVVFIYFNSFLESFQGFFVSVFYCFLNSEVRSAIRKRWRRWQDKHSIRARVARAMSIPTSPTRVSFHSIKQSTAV
Assay: CRF1 Receptor Binding Assay (rat brain membranes, 125I-ovine-CRF)
Conditions: read-out: Ki, the binding constant to the CRF1 receptor
Method: The following is a description of the isolation of rat brain membranes for use in the standard binding assay as well as a description of the binding assay itself. It is based on a modified protocol described by De Souza (De Souza, 1987).
To prepare brain membranes for binding assays, rat frontal cortex is homogenized in 10 mL of ice cold tissue buffer (50 mM HEPES buffer pH 7.0, containing 10 mM MgCl2, 2 mM EGTA, 1 μg/ml aprotinin, 1 μg/ml leupeptin and 1 μg/ml pepstatin). The homogenate is centrifuged at 48,000×g for 10 min. and the resulting pellet rehomogenized in 10 mL of tissue buffer. Following an additional centrifugation at 48,000×g for 10 min., the pellet is resuspended to a protein concentration of 300 μg/mL.
Binding assays are performed in 96 well plates at a final volume of 300 μL. The assays are initiated by the addition of 150 μL membrane suspension to 150 μL of assay buffer containing ^125I-ovine-CRF (final concentration 150 pM) and various concentrations of inhibitors. […] Filters are assessed for radioactivity in a Packard TopCount. Nonspecific binding is determined in the presence of excess (10 μM) α-helical CRF. […]
IC50 values are calculated using standard methods known in the art, such as with the non-linear curve fitting program RS/1 (BBN Software Products Corp., Cambridge, Mass.).

| Ki | Structure (SMILES) |
| --- | --- |
| 0.013 µM | CCO[C@H]1Cc2ccccc2[C@H]1Nc1nc(CC)c(-c2ccc(N(C)C)nc2C)nc1CC [Example 3, (1R,2S)[5-(6-Dimethylamino-2-methyl-pyridin-3-yl)-3,6-diethyl-pyrazin-2-yl]-(2-ethoxy-indan-1-yl)-amine] |
| 0.019 µM | CCc1nc(-c2ccc(N(C)C)nc2C)c(CC)nc1N[C@@H]1c2ccccc2C[C@@H]1OC(C)=O [Example 1, (1R,2S)Acetic acid 1-[5-(6-dimethylamino-2-methyl-pyridin-3-yl)-3,6-diethyl-pyrazin-2-ylamino]-indan-2-yl ester] |
